Drawing on the supplement of paper PMC10307832, this text covers relative viability for ten cell lines.

Common to all, as to assay: relative viability (nuclei count vs DMSO), 5 days (fraction); higher = more cells survive
Compound in assay [1]: Cn1cc(-c2cnc3ccc4ccc(CS(=O)(=O)NCc5ccccn5)cc4c(=O)c3c2)cn1 [MK-8033] + CC(C)C[C@H](NC(=O)[C@H](Cc1ccccc1)NC(=O)c1cnccn1)B(O)O [Bortezomib] (partner 0.002 µM)
In a few lines:
(§1)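 Each reported value is a median over duplicate plates. It expresses relative viability: treated-well nuclei count divided by vehicle-well nuclei count. Lung cancer cell lines in 1536-well plates were dosed by pin tool a day after seeding, alone with one drug or with a fixed anchor-drug dose plus five library-drug doses (not always all listed) in √10 steps, and nuclei were counted after 5 days.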

Compound in assay [2]: CCc1c2c(nc3ccc(OC(=O)N4CCC(N5CCCCC5)CC4)cc13)-c1cc3c(c(=O)n1C2)COC(=O)[C@]3(O)CC [Irinotecan] + Cc1nc(Nc2ncc(C(=O)Nc3c(C)cccc3Cl)s2)cc(N2CCN(CCO)CC2)n1 [Dasatinib] (partner 0.075 µM)
The procedure, abridged: as §1

Compound in assay [3]: CC[C@@H](C)CNCC(=O)N1CCC2=C([C@@H]1COC3=CC=CC(=C3)C)C=CS2 [RU-SKI 43] + N=C(N)NC(=N)NCCc1ccccc1 [Phenformin] (partner 250 µM)
The procedure, abridged: as §1

Compound in assay [4]: CC[C@@H](C)CNCC(=O)N1CCC2=C([C@@H]1COC3=CC=CC(=C3)C)C=CS2 [RU-SKI 43] + C[C@@H](Oc1cc(-c2cnn(C3CCNCC3)c2)cnc1N)c1c(Cl)ccc(F)c1Cl [Crizotinib] (partner 1 µM)
In a few lines:
as §1

Take 201T: the relative viability in assay [1] (first compound 0.02 µM) amounted to 1.13; in assay [1] (first compound 0.06325 µM), 1.09; in assay [1] (first compound 0.2 µM), 1.08; in assay [1] (first compound 0.6325 µM), 1.07; in assay [1] (first compound 2 µM), 1.12; in assay [2] (first compound 2 µM), 0.552. The relative viability in assay [2] (first compound 6.325 µM) worked out at 0.529; in assay [2] (first compound 20 µM), 0.36; in assay [3] (first compound 0.1 µM) it was 0.48; in assay [3] (first compound 0.3162 µM), 0.437; in assay [3] (first compound 1 µM), 0.464; in assay [3] (first compound 3.162 µM), 0.443. For the same cell line, the relative viability in assay [3] (first compound 10 µM) was 0.442; in assay [4] (first compound 0.1 µM) it was 1.02; in assay [4] (first compound 0.3162 µM), 0.991; in assay [4] (first compound 1 µM) it was 1.06; in assay [4] (first compound 3.162 µM) it was 1.06; in assay [4] (first compound 10 µM), 0.992.

For A549, the relative viability in assay [3] (first compound 0.1 µM) amounted to 0.186; in assay [3] (first compound 0.3162 µM), 0.16; in assay [3] (first compound 1 µM) it was 0.156; in assay [3] (first compound 3.162 µM), 0.113; in assay [3] (first compound 10 µM) it was 0.143; in assay [4] (first compound 0.1 µM), 0.775. Moreover, the relative viability in assay [4] (first compound 0.3162 µM) stood at 1.12; in assay [4] (first compound 1 µM), 0.847; in assay [4] (first compound 3.162 µM), 0.71; in assay [4] (first compound 10 µM) it was 0.52.

For A-427, the relative viability in assay [1] (first compound 0.02 µM) came to 0.98; in assay [1] (first compound 0.06325 µM), 1.11; in assay [1] (first compound 0.2 µM), 1.02; in assay [1] (first compound 0.6325 µM) it was 0.968; in assay [1] (first compound 2 µM), 0.954; in assay [2] (first compound 2 µM), 0.535. The relative viability came to 0.211 in assay [2] (first compound 6.325 µM); 0.16 in assay [2] (first compound 20 µM); 0.335 in assay [3] (first compound 0.1 µM); 0.308 in assay [3] (first compound 0.3162 µM); 0.44 in assay [3] (first compound 1 µM); 0.29 in assay [3] (first compound 3.162 µM). Further, the relative viability in assay [3] (first compound 10 µM) turned out to be 0.305; in assay [4] (first compound 0.1 µM), 0.832; in assay [4] (first compound 0.3162 µM), 0.809; in assay [4] (first compound 1 µM), 0.904; in assay [4] (first compound 10 µM) it was 0.651.

Consider ABC-1, for which the relative viability was determined as 0.307 in assay [1] (first compound 0.02 µM); 0.263 in assay [1] (first compound 0.06325 µM); 0.319 in assay [1] (first compound 0.2 µM); 0.337 in assay [1] (first compound 0.6325 µM); 0.313 in assay [1] (first compound 2 µM); 0.675 in assay [2] (first compound 2 µM). Moreover, the relative viability in assay [2] (first compound 6.325 µM) was 0.444; in assay [2] (first compound 20 µM) it was 0.203; in assay [3] (first compound 0.1 µM), 0.189; in assay [3] (first compound 0.3162 µM), 0.239; in assay [3] (first compound 1 µM), 0.227; in assay [3] (first compound 3.162 µM), 0.255. For the same cell line, the relative viability was 0.213 in assay [3] (first compound 10 µM); 0.993 in assay [4] (first compound 0.1 µM); 1.21 in assay [4] (first compound 0.3162 µM); 1.26 in assay [4] (first compound 1 µM); 0.939 in assay [4] (first compound 3.162 µM); 0.563 in assay [4] (first compound 10 µM).

Consider BEN, for which the relative viability in assay [1] (first compound 0.02 µM) was found to be 0.937; in assay [1] (first compound 0.06325 µM), 0.751; in assay [1] (first compound 0.2 µM), 0.578; in assay [1] (first compound 0.6325 µM) it was 0.631; in assay [1] (first compound 2 µM) it was 0.807; in assay [2] (first compound 0.6325 µM), 0.238. Further, the relative viability in assay [2] (first compound 2 µM) stood at 0.331; in assay [2] (first compound 6.325 µM) it was 0.199; in assay [2] (first compound 20 µM), 0.252; in assay [3] (first compound 0.1 µM) it was 0.26; in assay [3] (first compound 0.3162 µM), 0.283; in assay [3] (first compound 1 µM), 0.238. Moreover, the relative viability stood at 0.262 in assay [3] (first compound 3.162 µM); 0.267 in assay [3] (first compound 10 µM); 0.933 in assay [4] (first compound 0.1 µM); 1.14 in assay [4] (first compound 0.3162 µM); 1.03 in assay [4] (first compound 1 µM); 0.865 in assay [4] (first compound 3.162 µM). Also, the relative viability in assay [4] (first compound 10 µM) is 0.758.

On to CAL-12T, for which the relative viability was 0.935 in assay [1] (first compound 0.02 µM); 0.946 in assay [1] (first compound 0.06325 µM); 0.876 in assay [1] (first compound 0.2 µM); 1.16 in assay [1] (first compound 0.6325 µM); 1.01 in assay [1] (first compound 2 µM); 0.513 in assay [2] (first compound 2 µM). Also, the relative viability in assay [2] (first compound 6.325 µM) was 0.29; in assay [2] (first compound 20 µM), 0.095; in assay [3] (first compound 0.1 µM), 0.645; in assay [3] (first compound 0.3162 µM), 0.65; in assay [3] (first compound 1 µM), 0.616; in assay [3] (first compound 3.162 µM), 0.596. For the same cell line, the relative viability in assay [3] (first compound 10 µM) is 0.589; in assay [4] (first compound 0.1 µM), 0.494; in assay [4] (first compound 0.3162 µM), 0.747; in assay [4] (first compound 1 µM), 0.652; in assay [4] (first compound 3.162 µM), 0.896; in assay [4] (first compound 10 µM), 0.653.

On to Calu-6, for which the relative viability in assay [1] (first compound 0.02 µM) stood at 0.959; in assay [1] (first compound 0.06325 µM), 1.03; in assay [1] (first compound 0.2 µM), 1.04; in assay [1] (first compound 0.6325 µM), 0.955; in assay [1] (first compound 2 µM), 1.01; in assay [4] (first compound 0.1 µM), 0.781. Moreover, the relative viability was 0.871 in assay [4] (first compound 0.3162 µM), 0.936 in assay [4] (first compound 1 µM), 0.726 in assay [4] (first compound 3.162 µM) and 0.594 in assay [4] (first compound 10 µM).

As for EBC-1, the relative viability in assay [1] (first compound 0.02 µM) stood at 0.532; in assay [1] (first compound 0.06325 µM), 0.489; in assay [1] (first compound 0.2 µM), 0.597; in assay [1] (first compound 0.6325 µM), 0.563; in assay [1] (first compound 2 µM) it was 0.309; in assay [4] (first compound 0.1 µM) it was 0.19. Also, the relative viability in assay [4] (first compound 0.3162 µM) was found to be 0.183; in assay [4] (first compound 1 µM), 0.202; in assay [4] (first compound 3.162 µM), 0.176; in assay [4] (first compound 10 µM), 0.155.

For the cell line HCC-44, the relative viability came out at 0.9 in assay [1] (first compound 0.02 µM); 0.838 in assay [1] (first compound 0.06325 µM); 0.803 in assay [1] (first compound 0.2 µM); 0.907 in assay [1] (first compound 0.6325 µM); 0.833 in assay [1] (first compound 2 µM); 0.247 in assay [3] (first compound 0.1 µM). Besides, the relative viability in assay [3] (first compound 0.3162 µM) worked out at 0.261; in assay [3] (first compound 1 µM) it was 0.409; in assay [3] (first compound 3.162 µM), 0.18; in assay [3] (first compound 10 µM), 0.277; in assay [4] (first compound 0.1 µM) it was 0.778; in assay [4] (first compound 0.3162 µM) it was 0.785. In addition, the relative viability in assay [4] (first compound 1 µM) was determined as 0.846; in assay [4] (first compound 3.162 µM), 0.796; in assay [4] (first compound 10 µM), 0.806.

In the case of IA-LM, the relative viability in assay [1] (first compound 0.02 µM) stood at 0.791; in assay [1] (first compound 0.06325 µM) it was 0.746; in assay [1] (first compound 0.2 µM) it was 0.83; in assay [1] (first compound 0.6325 µM), 0.782; in assay [1] (first compound 2 µM) it was 0.802; in assay [4] (first compound 0.1 µM), 0.759. The relative viability in assay [4] (first compound 0.3162 µM) worked out at 0.797; in assay [4] (first compound 1 µM) it was 0.663; in assay [4] (first compound 3.162 µM), 0.736; in assay [4] (first compound 10 µM), 0.64.
